Results reported in PubChem BioAssay (NCI).
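How tested: cells in 96-well plates exposed to compound for 48 hours at five concentrations. Here, GI50 denotes the concentration required for 50% inhibition of growth. TGI: concentration producing complete growth inhibition.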

Experiments:
Assay in all cases: inhibition of tumour cell growth, NCI panel, 48 h
SK-OV-3 ovarian = system: SK-OV-3 ovarian
786-0 renal = system: 786-0 renal
MALME-3M melanoma = system: MALME-3M melanoma
HS 578T breast = system: HS 578T breast
SR leukemia = system: SR leukemia
UACC-257 melanoma = system: UACC-257 melanoma
A549 NSCLC = system: A549 NSCLC
SNB-75 CNS = system: SNB-75 CNS
RXF 393 renal = system: RXF 393 renal
OVCAR-8 ovarian = system: OVCAR-8 ovarian

SMILES | GI50 (SK-OV-3 ovarian) [µM] | TGI (SK-OV-3 ovarian) [µM] | GI50 (786-0 renal) [µM] | TGI (786-0 renal) [µM] | GI50 (MALME-3M melanoma) [µM] | TGI (MALME-3M melanoma) [µM] | GI50 (HS 578T breast) [µM] | TGI (HS 578T breast) [µM] | GI50 (SR leukemia) [µM] | TGI (SR leukemia) [µM] | GI50 (UACC-257 melanoma) [µM] | TGI (UACC-257 melanoma) [µM] | GI50 (A549 NSCLC) [µM] | TGI (A549 NSCLC) [µM] | GI50 (SNB-75 CNS) [µM] | TGI (SNB-75 CNS) [µM] | GI50 (RXF 393 renal) [µM] | TGI (RXF 393 renal) [µM] | GI50 (OVCAR-8 ovarian) [µM] | TGI (OVCAR-8 ovarian) [µM]
Nc1nc(-c2ccccc2)nc(N)c1N=O | 11.9 | 26 | 13.2 | 27.1 | 6.71 | 22.9 | 8.14 | > 100 | 3.63 | 54.9 | 8.75 | 44.3 | 8.86 | 23.3 | 5.21 | 19.1 | 2.07 | 7.07 | 7.55 | 53.7
COc1ccc2c(c1)C(=O)c1c-2c(Nc2ccc(Cl)cc2)nc2ccccc12 | – | – | 4.15 | 16 | 11 | 42.4 | 2.58 | 8.82 | 14 | 58.2 | 27.8 | > 100 | 13.3 | 39.7 | 4.27 | 22.8 | 2.06 | 6.35 | 11.4 | 29.6
CC(=O)O[C@]1(C(C)=O)CC[C@H]2[C@@H]3C=C(C)C4=CC(=O)CC[C@]4(C)[C@H]3CC[C@@]21C | > 91.9 | > 100 | > 80.7 | > 100 | > 74 | > 100 | > 60.4 | > 100 | > 55.8 | > 100 | > 89.2 | > 100 | > 78.1 | > 100 | > 59.8 | > 100 | 57.5 | > 100 | > 75.4 | > 100
Cn1ccnc1C(=O)/C=C/c1ccccc1 | 4.55 | 35.9 | 4.34 | 16.6 | 12.3 | 27.9 | 2.39 | 8.6 | 1.38 | 6.05 | 4.07 | 16.2 | 2.98 | 11.5 | 2.55 | 6.54 | – | – | 2.59 | 6.94
COc1ccc(Cn2cc3c(c2-c2ccc(OC)cc2)CCc2cnoc2-3)cc1 | 0.571 | > 100 | 0.658 | > 100 | – | – | 0.301 | 1.14 | 0.331 | 1.94 | 1.57 | > 100 | 0.582 | > 100 | 0.216 | 0.804 | 0.322 | – | 0.621 | > 100
COc1cc2c3c(n(CCCI)c(=O)c2cc1OC)-c1cc2c(cc1C3=O)OCO2 | > 100 | > 100 | 1.37 | > 100 | 7.57 | 54.6 | > 100 | > 100 | – | – | 3.77 | 49.4 | 2.5 | > 100 | > 100 | > 100 | 6.81 | > 100 | 3.16 | 81.8
CCC1CCc2nc3sc(C(=O)Nc4cccc(F)c4)c(N)c3cc2C1 (centres undefined) | > 100 | > 100 | 0.701 | > 100 | – | – | > 100 | > 100 | 0.379 | > 100 | > 100 | > 100 | > 100 | > 100 | 9.19 | > 100 | – | – | > 100 | > 100
COc1ccc(/C(C#N)=C/c2ccc(OC)c(OC)c2)cc1 | – | > 100 | – | > 100 | – | > 100 | – | > 100 | – | – | – | > 100 | – | > 100 | – | > 100 | – | > 100 | – | > 100
CCNC(=O)c1cc2c(-c3cc(C(C)(C)O)ccc3Oc3c(C)cc(F)cc3C)cn(C)c(=O)c2[nH]1 | – | – | 1.15 | 19.2 | 2.15 | 15.2 | 0.753 | 21.5 | – | – | 2.27 | 18.5 | 2.1 | 14.6 | 0.108 | 12.8 | 1.81 | 5.2 | 2.54 | 20.4
COc1cc(OC)c(/C=C/c2cnc3ccccc3n2)c(OC)c1 | – | > 10 | – | > 10 | – | > 10 | – | > 10 | – | – | – | > 10 | – | > 10 | – | > 10 | – | > 10 | – | > 10
CCCCCCCCCc1cccc(N2C(N)=NC(N)=NC2(C)C)c1 | – | > 33.1 | – | 1.3 | – | 8.22 | – | 6.48 | – | – | – | 2.13 | – | 4.26 | – | 25.9 | – | > 100 | – | 16
N#Cc1c(N)nc(N2CCOCC2)c(C#N)c1-c1cccnc1 | 47.8 | 99.6 | > 100 | > 100 | 37.2 | 91.4 | 66.1 | > 100 | – | – | 93.1 | > 100 | > 100 | > 100 | 11.1 | 43.6 | > 100 | > 100 | > 100 | > 100
CN1CCN(c2ccc3nc(-c4ccc5nc(-c6ccc(OCCC(C)(C)C)cc6)[nH]c5c4)[nH]c3c2)CC1 | 18 | 36 | 2.7 | 8.33 | 12.2 | 27.2 | 10.5 | 37.1 | 2.9 | 8.05 | 20.5 | 38.3 | 4.69 | 17.7 | 3.46 | 18 | – | – | 4.69 | 18.6
O=C(NP(=O)(N1CC1)N1CC1)c1cc(I)ccc1I | – | 89.9 | – | > 100 | – | > 92 | – | > 100 | – | – | – | > 100 | – | > 100 | – | 79.1 | – | > 87.8 | – | > 94.4
O=C1c2ccccc2C(=O)c2c1ccc(C1C(=O)c3ccccc3C1=O)c2-c1c(C2C(=O)c3ccccc3C2=O)ccc2c1C(=O)c1ccccc1C2=O | – | > 100 | – | > 100 | – | > 100 | – | > 100 | – | – | – | > 100 | – | > 100 | – | > 100 | – | > 100 | – | > 100
